Source: publication PMC9181188 (International Journal of Molecular Sciences, 2022)
≈ marks a conversion by molar mass, not a printed value. Read-outs that look alike come from different tables or passages of the source.

Legend:
[1] = test system: S. epidermidis ATCC 35984; assay: MIC, twofold microdilution, standard strain; type: cell-based; conditions: Staphylococcus epidermidis, ATCC35984; 18 h of treatment; read-out: MIC S. epidermidis ATCC 35984
S. aureus ATCC 25923 = assay: MIC, twofold microdilution, standard strain; type: cell-based; conditions: Staphylococcus aureus, ATCC25923; 18 h of treatment; read-out: MIC S. aureus ATCC 25923
P. aeruginosa ATCC 27853 = assay: MIC, twofold microdilution, standard strain; type: cell-based; conditions: Pseudomonas aeruginosa, ATCC27853; 18 h of treatment; read-out: MIC P. aeruginosa ATCC 27853
[2] = test system: standard staphylococci (S. aureus, S. epidermidis); assay: MIC, standard Gram-positive strains as a group; type: cell-based; conditions: Staphylococcus aureus; range over standard Gram-positive strains; read-out: MIC against standard staphylococci
S. aureus ATCC 29213 = assay: MIC, twofold microdilution, standard strain; type: cell-based; conditions: Staphylococcus aureus, ATCC29213; 18 h of treatment; read-out: MIC S. aureus ATCC 29213
[3] = test system: S. epidermidis KR 4313 834/19; assay: MIC, clinical S. epidermidis strain; type: cell-based; conditions: Staphylococcus epidermidis, KR4313834/19, quinolone-susceptible, 18 h of treatment
[4] = test system: S. epidermidis KR 4358/2 840/19; assay: MIC, clinical S. epidermidis strain; type: cell-based; conditions: Staphylococcus epidermidis, KR4358/2840/19; clinical S. epidermidis, quinolone-susceptible, 18 h of treatment; read-out: MIC KR 4358/2 840/19
E. coli ATCC 25922 = assay: MIC, twofold microdilution, standard strain; type: cell-based, Escherichia coli; conditions: Escherichia coli, read-out: MIC E. coli ATCC 25922
SW620 cells = assay: MTT assay, SW620; type: cell-based, human; conditions: for IC50: Homo sapiens, SW-620, 72 h, human metastatic colon cancer, 72 h, MTT, mean ± SD; for SI SW620: SI = IC50 for normal cell line (HaCaT)/IC50 cancer cell line
[5] = test system: S. epidermidis ATCC 12228; assay: MIC, twofold microdilution, standard strain; type: cell-based; conditions: Staphylococcus epidermidis, ATCC12228; 18 h of treatment; read-out: MIC S. epidermidis ATCC 12228
[6] = test system: S. epidermidis T 5501 851/19; assay: MIC, clinical S. epidermidis strain; type: cell-based; conditions: Staphylococcus epidermidis, T5501851/19, read-out: MIC T 5501 851/19, quinolone-susceptible, 18 h of treatment
[7] = test system: S. epidermidis T 5253 845/19; assay: MIC, clinical S. epidermidis strain; type: cell-based; conditions: Staphylococcus epidermidis, T5253845/19, quinolone-resistant, 18 h of treatment
[8] = test system: M. tuberculosis Spec. 192 (Sensitive to Tuberculostatics); assay: MABA (microplate Alamar blue assay) MIC; type: cell-based; conditions: Mycobacterium tuberculosis, 336 h, read-out: MIC M. tuberculosis Spec. 192 (Sensitive to Tuberculostatics)
SW480 cells = assay: MTT assay, SW480; type: cell-based, human; conditions: for IC50: Homo sapiens, SW480, 72 h, human primary colon cancer, 72 h, MTT, mean ± SD; for SI SW480: SI = IC50 for normal cell line (HaCaT)/IC50 cancer cell line
HaCaT cells = assay: MTT assay, HaCaT normal cells; type: cell-based; conditions: human immortal keratinocyte cell line, 72 h, mean ± SD
S. aureus ATCC 6538 = assay: MIC, twofold microdilution, standard strain; type: cell-based; conditions: Staphylococcus aureus, ATCC6538; 18 h of treatment; read-out: MIC S. aureus ATCC 6538
[9] = test system: SW480, SW620, and PC3 cancer cell lines; assay: MTT assay, cancer cell lines as a group; type: cell-based, human; conditions: Homo sapiens, 72 h, all three cancer cell lines (SW480, SW620, PC3), read-out: IC50 against all tested cancer cell lines
[10] = test system: S. epidermidis T 5399 848/19; assay: MIC, clinical S. epidermidis strain; type: cell-based; conditions: Staphylococcus epidermidis, T5399848/19, quinolone-susceptible, 18 h of treatment
M. tuberculosis H37Rv = assay: MABA (microplate Alamar blue assay) MIC; type: cell-based; conditions: Mycobacterium tuberculosis, 336 h, read-out: MIC M. tuberculosis H37Rv
[11] = test system: S. epidermidis KR 4243 829/19; assay: MIC, clinical S. epidermidis strain; type: cell-based; conditions: Staphylococcus epidermidis, KR4243829/19, quinolone-susceptible, 18 h of treatment
PC3 cells = assay: MTT assay, PC3; type: cell-based, human; conditions: for IC50: Homo sapiens, PC-3, 72 h, human metastatic prostate cancer, 72 h, MTT, mean ± SD; for SI PC3: SI = IC50 for normal cell line (HaCaT)/IC50 cancer cell line
[12] = test system: S. epidermidis KR 4047 825/19; assay: MIC, clinical S. epidermidis strain; type: cell-based; conditions: Staphylococcus epidermidis, KR4047825/19, quinolone-resistant, 18 h of treatment
S. aureus NCTC 4163 = assay: MIC, twofold microdilution, standard strain; type: cell-based; conditions: Staphylococcus aureus, NCTC4163; 18 h of treatment; read-out: MIC S. aureus NCTC 4163
M. tuberculosis strains = assay: MABA MIC, mycobacterial strains as a group; type: cell-based; conditions: Mycobacterium tuberculosis; summary over strains; read-out: MIC antimycobacterial (strain not specified)

Row | SMILES | MIC [1] | MIC (S. aureus ATCC 25923) | MIC (P. aeruginosa ATCC 27853) | MIC [2] | MIC (S. aureus ATCC 29213) | MIC [3] | MIC [4] | IC50 (SW620 cells) | SI SW620 (SW620 cells) | MIC [5] | MIC [6] | MIC [7] | IC50 (SW480 cells) | SI SW480 (SW480 cells) | IC50 (HaCaT cells) | MIC (S. aureus ATCC 6538) | MIC [10] | MIC [11] | IC50 (PC3 cells) | SI PC3 (PC3 cells) | other results
1 | CCCCCCCC/C=C/CCCCCCCC(=O)N1CCCC2CN(c3c(F)cc4c(=O)c(C(=O)O)cn(C5CC5)c4c3OC)CC21 (stereo not drawn) [Compound 5m, 1-Cyclopropyl-6-fluoro-8-methoxy-7-{1-(E)-octadec-9-enoyl-octahydro-pyrrolo[3,4-b]pyridin-6-yl}-4-oxo-1,4-dihydro-quinoline-3-carboxylic acid] | > 512 µg/mL | > 512 µg/mL | 128 µg/mL (≈ 192 µM) | > 32 µg/mL | > 512 µg/mL | 256 µg/mL (≈ 384 µM) | 512 µg/mL (≈ 769 µM) | 8.7 ± 1.2 µM | 10.5 | > 512 µg/mL | 512 µg/mL (≈ 769 µM) | 512 µg/mL (≈ 769 µM) | 6.7 ± 0.6 µM | 13.7 | 91.6 ± 4.6 µM | > 512 µg/mL | 512 µg/mL (≈ 769 µM) | > 512 µg/mL | 5.3 ± 1.3 µM | 17.3 | MIC (E. coli ATCC 25922; ATCC25922, 18 h of treatment): > 512 µg/mL; MIC [8]: 256 µg/mL (≈ 384 µM); IC50 [9]: 5 to 10 µM; MIC (M. tuberculosis H37Rv; 2 weeks of treatment): 512 µg/mL (≈ 769 µM); MIC [12]: > 512 µg/mL; MIC (S. aureus NCTC 4163): > 512 µg/mL
2 | CC/C=C\C/C=C\C/C=C\CCCCCCCC(=O)N1CCCC2CN(c3c(F)cc4c(=O)c(C(=O)O)cn(C5CC5)c4c3OC)CC21 (stereo not drawn) [Compound 6m, 1-Cyclopropyl-6-fluoro-8-methoxy-7-{1-(9Z,12Z,15Z)-octadeca-9,12,15-trienoyl-octahydro-pyrrolo[3,4-b]pyridin-6-yl}-4-oxo-1,4-dihydro-quinoline-3-carboxylic acid] | 32 µg/mL (≈ 48.3 µM) | 32 µg/mL (≈ 48.3 µM) | > 512 µg/mL | 8 to 32 µg/mL (≈ 12.1 to 48.3 µM) | 16 µg/mL (≈ 24.2 µM) | 64 µg/mL (≈ 96.7 µM) | 64 µg/mL (≈ 96.7 µM) | 15.6 ± 2.6 µM | 6.2 | 32 µg/mL (≈ 48.3 µM) | 128 µg/mL (≈ 193 µM) | 256 µg/mL (≈ 387 µM) | 16.7 ± 3.1 µM | 5.8 | 96.6 ± 5.5 µM | 16 µg/mL (≈ 24.2 µM) | 32 µg/mL (≈ 48.3 µM) | 64 µg/mL (≈ 96.7 µM) | 14.4 ± 2.4 µM | 6.7 | MIC (E. coli ATCC 25922; ATCC25922, 18 h): 256 µg/mL (≈ 387 µM); MIC ([8]; 2 weeks of treatment): 128 µg/mL (≈ 193 µM); MIC (M. tuberculosis strains): ≥ 128 µg/mL; MIC (M. tuberculosis H37Rv): 256 µg/mL (≈ 387 µM); MIC [12]: 256 µg/mL (≈ 387 µM); MIC (S. aureus NCTC 4163): 16 µg/mL (≈ 24.2 µM)
3 | CCCCC/C=C\C/C=C\C/C=C\CCCCC(=O)N1CCCC2CN(c3c(F)cc4c(=O)c(C(=O)O)cn(C5CC5)c4c3OC)CC21 (stereo not drawn) [Compound 12m, 1-Cyclopropyl-6-fluoro-8-methoxy-7-{1-(6Z,9Z,12Z)-octadeca-6,9,12-trienoyl-octahydro-pyrrolo[3,4-b]pyridin-6-yl}-4-oxo-1,4-dihydro-quinoline-3-carboxylic acid] | 32 µg/mL (≈ 48.3 µM) | 64 µg/mL (≈ 96.7 µM) | > 512 µg/mL | > 32 µg/mL | 64 µg/mL (≈ 96.7 µM) | 256 µg/mL (≈ 387 µM) | 512 µg/mL (≈ 774 µM) | 18.3 ± 3.2 µM | 4.8 | 64 µg/mL (≈ 96.7 µM) | 32 µg/mL (≈ 48.3 µM) | 512 µg/mL (≈ 774 µM) | 16.8 ± 2.3 µM | 5.3 | 88.7 ± 3.3 µM | 64 µg/mL (≈ 96.7 µM) | 32 µg/mL (≈ 48.3 µM) | 32 µg/mL (≈ 48.3 µM) | 14.7 ± 2.3 µM | 6.0 | MIC (E. coli ATCC 25922; ATCC25922, 18 h of treatment): 128 µg/mL (≈ 193 µM); MIC ([8]; 2 weeks of treatment): 64 µg/mL (≈ 96.7 µM); MIC (M. tuberculosis strains): 64 µg/mL (≈ 96.7 µM); MIC (M. tuberculosis H37Rv; 2 weeks of treatment): 64 µg/mL (≈ 96.7 µM); MIC [12]: 256 µg/mL (≈ 387 µM); MIC (S. aureus NCTC 4163): 64 µg/mL (≈ 96.7 µM)
